Measurements from article doi:10.1101/2023.03.04.531071v1 (biorxiv, 2023).

Assays:
Xanthine oxidase (XO) [1] = biological target: T1, Xanthine oxidase (XO) (Bos taurus, UniProt P80457); assay: uric acid formation, absorbance […] nm; format: biochemical
Xanthine oxidase (XO) [2] = biological target: T1, Xanthine oxidase (XO); assay: uric acid formation, Morrison fit; format: biochemical

T1 sequence (P80457 2-1332): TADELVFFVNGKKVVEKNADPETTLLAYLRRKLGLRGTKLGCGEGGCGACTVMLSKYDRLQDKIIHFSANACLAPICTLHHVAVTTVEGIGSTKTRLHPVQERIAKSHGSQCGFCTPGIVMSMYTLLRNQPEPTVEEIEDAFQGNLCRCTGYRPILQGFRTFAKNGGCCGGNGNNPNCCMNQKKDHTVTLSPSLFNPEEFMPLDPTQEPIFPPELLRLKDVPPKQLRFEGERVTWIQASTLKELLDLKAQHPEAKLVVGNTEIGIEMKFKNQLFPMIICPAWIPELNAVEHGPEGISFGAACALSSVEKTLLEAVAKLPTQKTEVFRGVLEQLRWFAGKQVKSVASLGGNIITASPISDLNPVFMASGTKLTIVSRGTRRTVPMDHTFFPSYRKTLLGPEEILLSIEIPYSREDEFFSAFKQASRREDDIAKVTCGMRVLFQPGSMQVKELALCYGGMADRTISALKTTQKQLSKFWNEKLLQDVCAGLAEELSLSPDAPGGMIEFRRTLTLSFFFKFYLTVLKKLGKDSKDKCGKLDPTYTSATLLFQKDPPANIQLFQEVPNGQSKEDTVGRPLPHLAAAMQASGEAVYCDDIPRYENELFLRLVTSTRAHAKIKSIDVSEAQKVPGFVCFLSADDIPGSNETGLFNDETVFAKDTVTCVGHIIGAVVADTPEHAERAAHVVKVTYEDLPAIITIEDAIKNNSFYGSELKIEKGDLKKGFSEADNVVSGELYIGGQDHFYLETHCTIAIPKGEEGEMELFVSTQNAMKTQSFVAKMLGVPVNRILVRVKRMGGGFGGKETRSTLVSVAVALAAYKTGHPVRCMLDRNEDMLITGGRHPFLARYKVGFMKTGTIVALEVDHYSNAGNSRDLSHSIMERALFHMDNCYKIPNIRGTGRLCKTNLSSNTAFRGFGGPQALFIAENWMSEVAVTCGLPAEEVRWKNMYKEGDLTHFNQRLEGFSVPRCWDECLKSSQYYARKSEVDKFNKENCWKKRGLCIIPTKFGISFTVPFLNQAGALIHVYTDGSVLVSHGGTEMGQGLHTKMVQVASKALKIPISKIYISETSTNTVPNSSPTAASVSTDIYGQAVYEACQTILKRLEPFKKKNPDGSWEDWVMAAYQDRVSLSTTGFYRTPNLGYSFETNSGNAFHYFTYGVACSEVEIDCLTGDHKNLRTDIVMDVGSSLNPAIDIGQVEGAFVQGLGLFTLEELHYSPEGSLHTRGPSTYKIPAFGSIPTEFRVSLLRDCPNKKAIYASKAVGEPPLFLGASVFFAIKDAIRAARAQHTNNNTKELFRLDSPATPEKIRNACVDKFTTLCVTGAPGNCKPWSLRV

| IC50 (Xanthine oxidase (XO) [1]) | Ki (Xanthine oxidase (XO) [2]) | SMILES |
| --- | --- | --- |
| 24.8 ± 0.072 µM | 2.22 ± 0.307 µM | COc1cc(C)cc2c1C(=O)c1c(O)cccc1C2=O [1-O-methyl chrysophanol] |
| 200.9 ± 0.04 µM | 38.7 ± 2.71 µM | Cc1cc(O)c2c(c1)C(=O)c1cccc(O)c1C2=O [Chrysophanol] |
